A word on the inhibition: it is the drop in the measured response relative to a control, in per cent.

Here are results for 86 compounds from PMC8041284, “Tunable Methacrylamides for Covalent Ligand Directed Release Chemistry” (Journal of the American Chemical Society, 2021).

The target in the experiment is BTK (Homo sapiens, UniProt Q06187). In words: biochemical. Conditions: read-out: BTK inhibition (%), 0.75 uM BTK, […] probe 3l, 15 min preincubation.
Chain of BTK (Q06187 402-655 limits assumed): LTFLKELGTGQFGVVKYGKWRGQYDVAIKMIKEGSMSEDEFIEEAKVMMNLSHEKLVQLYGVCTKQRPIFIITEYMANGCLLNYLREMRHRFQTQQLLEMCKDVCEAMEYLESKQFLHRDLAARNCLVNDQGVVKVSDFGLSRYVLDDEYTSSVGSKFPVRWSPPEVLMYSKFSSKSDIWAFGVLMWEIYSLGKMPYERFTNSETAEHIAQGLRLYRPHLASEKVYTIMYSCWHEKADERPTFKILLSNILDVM

On to `COc1ccc2cc([C@H](C)C(=O)O)ccc2c1` [PCM-0000233], for which the inhibition at 10 µM was -13.1%.

Consider `c1coc(CNc2ncnc3nc[nH]c23)c1` [PCM-0000462], for which the inhibition at 10 µM is 10.9%.

For `COc1ccc(Cl)cc1C(=O)NCCc1ccc(S(=O)(=O)NC(=O)NC2CCCCC2)cc1` [PCM-0003840], the inhibition at 10 µM was -65.4%.

In the case of `O=C(Oc1cc(S(=O)(=O)c2ccccc2)ccc1[N+](=O)[O-])c1ccc(Cl)cc1` [PCM-0004196], the inhibition at 10 µM was -3.1%.

Regarding `C=C[C@H]1CN2CC[C@H]1C[C@H]2[C@H](O)c1ccnc2ccc(OC)cc12` [PCM-0004959], the inhibition at 10 µM is -22.6%.

On to `Cc1c(Cl)cccc1Nc1ccccc1C(=O)O` [PCM-0005612], for which the inhibition at 10 µM is -6.2%.

Take `CC1=NN(c2ccccc2)C(=O)C1` [PCM-0006147]: the inhibition at 10 µM is 6.2%.

Take `O=C(/C=C/C=C/c1ccc2c(c1)OCO2)N1CCCCC1` [PCM-0006645]: the inhibition at 10 µM was -14%.

As for `O=C(NCCS(=O)(=O)c1ccc(C(F)(F)F)cn1)c1ccc(Cl)cc1` [PCM-0007384], the inhibition at 10 µM came out at 16.6%.

With `Cc1cccc(N(C)C(=S)Oc2ccc3ccccc3c2)c1` [PCM-0007505], the inhibition at 10 µM came to 4.7%.

As for `CC1=CC(=O)c2ccccc2C1=O` [PCM-0009823], the inhibition at 10 µM is -3.1%.

Consider `O=C(Nc1ccccc1)N1CCN(c2nc(-c3ccccc3)ns2)CC1` [PCM-0010620], for which the inhibition at 10 µM is -3.9%.

Consider `Cc1cc(=O)oc2cc(O)ccc12` [PCM-0011565], for which the inhibition at 10 µM was -2.3%.

`COc1cc2ncnc(Nc3cccc(Cl)c3)c2cc1OC` [PCM-0012125]: the inhibition at 10 µM is 21.4%.

For the compound `O=C1c2ccccc2-c2n[nH]c3cccc1c23` [PCM-0012406], the inhibition at 10 µM stood at 18.6%.

In the case of `CC(N)C12CC3CC(CC(C3)C1)C2` (centres unmarked) [PCM-0012697], the inhibition at 10 µM came out at 3.1%.

As to `CCn1cc(C(=O)O)c(=O)c2ccc(C)nc21` [PCM-0012961], the inhibition at 10 µM was 5.4%.

Take `CC(=O)N[C@@H](CS)C(=O)O` [PCM-0064400]: the inhibition at 10 µM was determined as 5.5%.

Turning to `NCCCCCC(=O)O` [PCM-0064402], the inhibition at 10 µM is -2.3%.

`CN(C)c1nc(N(C)C)nc(N(C)C)n1` [PCM-0064404]: the inhibition at 10 µM was 15.9%.

Regarding `NC12CC3CC(CC(C3)C1)C2` [PCM-0064405], the inhibition at 10 µM was -14.8%.

Take `CCCCNc1cc(C(=O)O)cc(S(N)(=O)=O)c1Oc1ccccc1` [PCM-0064421]: the inhibition at 10 µM is -6.2%.

Turning to `CC(NC(C)(C)C)C(=O)c1cccc(Cl)c1` (centres unmarked) [PCM-0064429], the inhibition at 10 µM was -3.9%.

As for `CN1CCC(=C2c3ccccc3C=Cc3ccccc32)CC1` [PCM-0064430], the inhibition at 10 µM is -9.3%.

On to `CC(C)(Oc1ccc(C2CC2(Cl)Cl)cc1)C(=O)O` (centres unmarked) [PCM-0064433], for which the inhibition at 10 µM was -14%.

In the case of `CN(C)CCCN1c2ccccc2Sc2ccc(Cl)cc21` [PCM-0064436], the inhibition at 10 µM was -16.3%.

Regarding `Cn1c(=O)c2[nH]cnc2n(C)c1=O` [PCM-0064445], the inhibition at 10 µM is -24.9%.

On to `CC(=O)NC[C@H]1CN(c2ccc(N3CCOCC3)c(F)c2)C(=O)O1` [PCM-0064450], for which the inhibition at 10 µM was -23.3%.

Consider `Clc1ccc(C(c2ccccc2Cl)C(Cl)Cl)cc1` (centres unmarked) [PCM-0064460], for which the inhibition at 10 µM is 19.5%.

With `N[C@@H]1CONC1=O` [PCM-0064462], the inhibition at 10 µM was -11.9%.

For the compound `Oc1ccc(-c2nc(-c3ccc(F)cc3)c(-c3ccncc3)[nH]2)cc1` [PCM-0064463], the inhibition at 10 µM was 18.6%.

For the compound `NS(=O)(=O)c1cc2c(cc1Cl)NC=NS2(=O)=O` [PCM-0064466], the inhibition at 10 µM was -10.1%.

With `CN(C)CCCC1(c2ccc(F)cc2)OCc2cc(C#N)ccc21` (centres unmarked) [PCM-0064474], the inhibition at 10 µM was -14.8%.

On to `CN(C)CCC[C@@]1(c2ccc(F)cc2)OCc2cc(C#N)ccc21` [PCM-0064474], for which the inhibition at 10 µM is -6.2%.

Take `O=c1[nH]cnc2[nH]ncc12` [PCM-0064482]: the inhibition at 10 µM turned out to be 18.7%.

Turning to `Oc1ncnc2[nH]ncc12` [PCM-0064482], the inhibition at 10 µM is -5.5%.

For `Cn1cnc([N+](=O)[O-])c1Sc1ncnc2nc[nH]c12` [PCM-0064491], the inhibition at 10 µM is -4.8%.

Turning to `CN(C)CCC(c1ccc(Cl)cc1)c1ccccn1` (centres unmarked) [PCM-0064500], the inhibition at 10 µM was 6.9%.

Take `Clc1cccc(Cl)c1NC1=NCCN1` [PCM-0064514]: the inhibition at 10 µM is -19.5%.

Regarding `CN(C)CCC=C1c2ccccc2CCc2ccccc21` [PCM-0064521], the inhibition at 10 µM was -22.6%.

Regarding `Nc1ncn([C@@H]2O[C@H](CO)[C@@H](O)[C@H]2O)c(=O)n1` [PCM-0064526], the inhibition at 10 µM is -6.2%.

As for `COc1ccc(C(=O)N2CCCC2=O)cc1` [PCM-0064527], the inhibition at 10 µM is -4.7%.

Turning to `Nc1c2c(nc3ccccc13)CCCC2` [PCM-0064528], the inhibition at 10 µM was -7.8%.

Regarding `Nc1nc2c(ncn2COCCO)c(=O)[nH]1` [PCM-0064530], the inhibition at 10 µM was -15.6%.

With `CC(C)NCC(O)COc1ccc(CCOCC2CC2)cc1` (centres unmarked) [PCM-0064542], the inhibition at 10 µM was 21%.

As to `CN1CCN(C2=Nc3cc(Cl)ccc3Nc3ccccc32)CC1` [PCM-0064549], the inhibition at 10 µM was found to be 4.7%.

For `CCCCc1oc2ccccc2c1C(=O)c1cc(I)c(OCCN(CC)CC)c(I)c1` [PCM-0064561], the inhibition at 10 µM is 75.5%.

In the case of `NC(=O)c1cccc(N)c1` [PCM-0064562], the inhibition at 10 µM was -3.9%.

Regarding `CCC1(c2ccc(N)cc2)CCC(=O)NC1=O` (centres unmarked) [PCM-0064565], the inhibition at 10 µM is -3.4%.

Consider `CCc1ccc(/C=C2/SC(=S)NC2=O)cc1` [PCM-0064568], for which the inhibition at 10 µM stood at 46.2%.

Turning to `c1cnc2cc3c(cc2n1)[C@@H]1CNC[C@H]3C1` [PCM-0064570], the inhibition at 10 µM is -31.5%.

For the compound `CN(C)CCC(c1ccc(Br)cc1)c1ccccn1` (centres unmarked) [PCM-0064576], the inhibition at 10 µM was -19.3%.

On to `COc1ccccc1N1CCN(CCN2C(=O)CC3(CCCC3)CC2=O)CC1` [PCM-0064586], for which the inhibition at 10 µM was -3.1%.

With `O=C(O)/C=C/c1ccc(O)c(O)c1` [PCM-0064590], the inhibition at 10 µM is -21.8%.

With `O=C(O)/C=C/C(=O)O` [PCM-0064603], the inhibition at 10 µM is -7.7%.

Regarding `NC(=O)N1c2ccccc2C=Cc2ccccc21` [PCM-0064618], the inhibition at 10 µM was determined as 9.3%.

For `O=C1CCc2cc(OCCCCc3nnnn3C3CCCCC3)ccc2N1` [PCM-0064629], the inhibition at 10 µM was -19.5%.

As to `Oc1cc(O)c2c(c1)O[C@H](c1ccc(O)c(O)c1)[C@@H](O)C2` [PCM-0064631], the inhibition at 10 µM came out at 37.4%.

Regarding `O=c1cc(-c2ccc(O)cc2)oc2cc(O)cc(O)c12` [PCM-0064643], the inhibition at 10 µM turned out to be 63.8%.

For `C[C@H](CS)C(=O)N1CCC[C@H]1C(=O)O` [PCM-0064658], the inhibition at 10 µM is -2.3%.

As to `COc1cc2nc(N(C)CCCNC(=O)C3CCCO3)nc(N)c2cc1OC` (centres unmarked) [PCM-0064661], the inhibition at 10 µM is 1.6%.

For `CC(C[N+](C)(C)C)OC(N)=O` (centres unmarked) [PCM-0064662], the inhibition at 10 µM was -7%.

As for `CC(C)c1c(C(=O)Nc2ccccc2)c(-c2ccccc2)c(-c2ccc(F)cc2)n1CC[C@@H](O)C[C@@H](O)CC(=O)O` [PCM-0064680], the inhibition at 10 µM was 10.1%.

On to `NC(N)=NCCCC(N)C(=O)O` (centres unmarked) [PCM-0064685], for which the inhibition at 10 µM is -17%.

Turning to `O=C1NC(=O)/C(=C/c2ccc(-c3ccc(F)cc3O)o2)S1` [PCM-0064686], the inhibition at 10 µM turned out to be 82.8%.

For the compound `NC(CO)C(=O)NNCc1ccc(O)c(O)c1O` (centres unmarked) [PCM-0064697], the inhibition at 10 µM was -14%.

For the compound `Clc1ccccc1C(c1ccccc1)(c1ccccc1)n1ccnc1` [PCM-0064702], the inhibition at 10 µM is -2.3%.

Take `Cc1cc(Cl)ccc1OCCCC(=O)NO` [PCM-0064710]: the inhibition at 10 µM worked out at 7%.

On to `CC#C[C@]1(O)CC[C@H]2[C@@H]3CCC4=CC(=O)CCC4=C3[C@@H](c3ccc(N(C)C)cc3)C[C@@]21C` [PCM-0064713], for which the inhibition at 10 µM is 38.6%.

On to `CCOC(=O)C1=C(C)NC(C)=C(C(=O)OC)C1c1cccc([N+](=O)[O-])c1` (centres unmarked) [PCM-0064714], for which the inhibition at 10 µM was -28%.

Consider `COC(=O)C1=C(C)NC(C)=C(C(=O)OCCN(C)Cc2ccccc2)C1c1cccc([N+](=O)[O-])c1` (centres unmarked) [PCM-0064729], for which the inhibition at 10 µM stood at 47.5%.

For `CC/C(=C(\c1ccccc1)c1ccc(OCCN(C)C)cc1)c1ccccc1` [PCM-0064738], the inhibition at 10 µM came to 7.6%.

Regarding `CC(C)(C)NCC(O)c1cc(O)cc(O)c1` (centres unmarked) [PCM-0064743], the inhibition at 10 µM was -26.4%.

For the compound `COc1cc2nc(N3CCCN(C)CC3)nc(NC3CCN(Cc4ccccc4)CC3)c2cc1OC` [PCM-0064746], the inhibition at 10 µM was -0.7%.

On to `COCCOC(=O)C1=C(C)NC(C)=C(C(=O)OC(C)C)C1c1cccc([N+](=O)[O-])c1` (centres unmarked) [PCM-0064753], for which the inhibition at 10 µM was 5.4%.

For `CNCCCC12CCC(c3ccccc31)c1ccccc12` [PCM-0064754], the inhibition at 10 µM is 11.7%.

For `CC(C)(C)C(=O)Oc1ccc(S(=O)(=O)Nc2ccccc2C(=O)NCC(=O)O)cc1` [PCM-0064760], the inhibition at 10 µM worked out at 11.7%.

As for `CC(=O)[C@H]1CC[C@H]2[C@@H]3CCC4=CC(=O)CC[C@]4(C)[C@H]3CC[C@]12C` [PCM-0064761], the inhibition at 10 µM was -7.8%.

Consider `CC(C)NCC(O)COc1cccc2ccccc12` (centres unmarked) [PCM-0064763], for which the inhibition at 10 µM was -12.5%.

Take `COC(=O)C1=C(C)NC(C)=C(C(=O)OC)C1c1ccccc1[N+](=O)[O-]` [PCM-0064767]: the inhibition at 10 µM came to 14%.

Turning to `CN1C(C(=O)Nc2ccccn2)=C(O)c2ccccc2S1(=O)=O` [PCM-0064770], the inhibition at 10 µM is 9%.

Consider `CCCCNc1ccc(C(=O)OCCN(C)C)cc1` [PCM-0064772], for which the inhibition at 10 µM came out at 10.9%.

Consider `CCN1CCCC1CNC(=O)c1cc(S(=O)(=O)CC)c(N)cc1OC` (centres unmarked) [PCM-0064775], for which the inhibition at 10 µM came to 0.8%.

For the compound `NCCS(=O)(=O)O` [PCM-0064776], the inhibition at 10 µM was -6%.

On to `c1ccc2c(c1)CCCC2C1=NCCN1` (centres unmarked) [PCM-0064782], for which the inhibition at 10 µM was -11%.

Regarding `N#CC(=C(/N)Sc1ccccc1N)/C(C#N)=C(\N)Sc1ccccc1N` [PCM-0064783], the inhibition at 10 µM was -4.1%.
